Results on 18 compounds are retold here after ChEMBL document CHEMBL1128055, “Selective cytotoxic cyclolignans” (Bioorg Med Chem Lett, 1995).

One test deals with SK-MEL-28. The experiment in a line: Antineoplastic activity against MEL-28 human melanoma carcinoma cell cultures. The class given is functional, cell-based.
A further test deals with P388. Nature of the test: Antineoplastic activity against P-388 (murine leukemia) cell line. In kind it is functional, cell-based. The following applies: Mus musculus.
The subject of a further test is CV-1. The experiment in a line: Antineoplastic activity against CV-1 (monkey kidney fibroblast) cell line. The class given is functional, cell-based, Cercopithecidae. The following applies: Chlorocebus aethiops.
The subject of a further test is HT-29. The experiment in a line: Antineoplastic activity against HT-29 (human colon carcinoma) cell line. The class given is functional, cell-based.
Test [1] can be described thus: Selectivity index was evaluated by antineoplastic activity against HT-29 cells and compared with cytotoxicity against normal cells. The class given is functional.
The next test has as its system A549. The experiment in a line: Antineoplastic activity against A-549 (human lung carcinoma) cell line. The class given is functional, cell-based.

The term IC50 denotes the point on the concentration scale where inhibition reaches its midpoint. Regarding `COC(=O)[C@@H]1C(/C=N/Nc2ccccc2)=Cc2cc3c(cc2[C@H]1c1cc(OC)c(OC)c(OC)c1)OCO3`, the concentration for half-maximal inhibition (IC50) was found to be 4840 nM in the test on SK-MEL-28; 1940 nM with P388; 1940 nM with CV-1; 39 nM with HT-29; 970 nM in the test on A549. The compound further had a Selectivity index in test [1] of 50.
In the case of `COc1cc([C@@H]2c3cc4c(cc3C=C(/C=N/Nc3ccccc3)[C@H]2CO)OCO4)cc(OC)c1OC`, the IC50 turned out to be 510 nM in the test with SK-MEL-28; 1020 nM in the test on P388; 1020 nM in the test on CV-1; 2050 nM in the test on HT-29; 1020 nM in the test with A549.
Regarding `COC(=O)[C@H]1[C@H](c2cc(OC)c(OC)c(OC)c2)c2cc3c(cc2C(=O)[C@H]1CO)OCO3`, the IC50 in the test on SK-MEL-28, in the test on P388, in the test with CV-1, in the test with HT-29 and in the test with A549 was 5630 nM throughout.
Turning to `COC(=O)[C@H]1[C@H](c2cc(OC)c(OC)c(OC)c2)c2cc3c(cc2[C@H](O)[C@H]1CO)OCO3`, the IC50 worked out at 220 nM in the test on P388, 450 nM with CV-1, 450 nM in the test with HT-29 and 220 nM in the test with A549.
In the case of `CO/N=C/[C@@H]1Cc2cc3c(cc2[C@@H](c2cc(OC)c(OC)c(OC)c2)[C@@H]1C(=O)OC)OCO3`, the 50% inhibitory concentration (IC50) with SK-MEL-28 is greater than 21900 nM; in the test on P388 it was 10900 nM; in the test on CV-1 it was greater than 21900 nM; with HT-29, greater than 21900 nM; in the test with A549, 21900 nM.
`COC(=O)[C@@H]1C(/C=N/N)=Cc2cc3c(cc2[C@H]1c1cc(OC)c(OC)c(OC)c1)OCO3`: the concentration for half-maximal inhibition (IC50) with SK-MEL-28 is 1140 nM; in the test on P388, 570 nM; with CV-1 it was 2270 nM; with HT-29, 570 nM; with A549, 570 nM.
Turning to `CO/N=C/C1=Cc2cc3c(cc2[C@@H](c2cc(OC)c(OC)c(OC)c2)[C@@H]1C(=O)OC)OCO3`, the IC50 with SK-MEL-28, in the test on P388, with CV-1, in the test with HT-29 and in the test with A549 was 220 nM throughout.
In the case of `COC(=O)[C@@H]1[C@H](CO)Cc2cc3c(cc2[C@H]1c1cc(OC)c(OC)c(OC)c1)OCO3`, the IC50 in the test on SK-MEL-28 was 58 nM; with P388, 58 nM; with CV-1, 58 nM; in the test on HT-29, 120 nM; in the test on A549, 58 nM.
Regarding `COC(=O)[C@@H]1[C@H](COC(C)=O)Cc2cc3c(cc2[C@H]1c1cc(OC)c(OC)c(OC)c1)OCO3`, the IC50 in the test with SK-MEL-28, in the test with P388, with CV-1, with HT-29 and in the test on A549 was 210 nM in each case.
For the compound `COc1cc([C@@H]2c3cc4c(cc3C=C(C=O)[C@H]2CO)OCO4)cc(OC)c1OC`, the IC50 in the test with SK-MEL-28 stood at 250 nM; in the test on P388, 250 nM; in the test on CV-1, 630 nM; with HT-29 it was 250 nM; with A549 it was 250 nM.
For `COC(=O)[C@@H]1C(/C=N/O)=Cc2cc3c(cc2[C@H]1c1cc(OC)c(OC)c(OC)c1)OCO3`, the IC50 in the test on SK-MEL-28, in the test on P388, in the test with CV-1, in the test with HT-29 and in the test with A549 was 2270 nM each time.
On to `COC(=O)[C@H]1[C@H](c2cc(OC)c(OC)c(OC)c2)c2cc3c(cc2C[C@H]1C=O)OCO3`, for which the half-maximal inhibitory concentration (IC50) in the test on SK-MEL-28, with P388, with CV-1, in the test on HT-29 and with A549 was 2340 nM each time.
In the case of `COC(=O)[C@H]1[C@H](c2cc(OC)c(OC)c(OC)c2)c2cc3c(cc2[C@H](OC(C)=O)[C@H]1COC(C)=O)OCO3`, the IC50 in the test with P388, in the test with CV-1, in the test on HT-29 and in the test with A549 was 1100 nM throughout.
Regarding `COC(=O)[C@@H]1C(/C=N/NCC(F)(F)F)=Cc2cc3c(cc2[C@H]1c1cc(OC)c(OC)c(OC)c1)OCO3`, the half-maximal inhibitory concentration (IC50) stood at 480 nM in the test with SK-MEL-28; 480 nM with P388; 480 nM in the test on CV-1; 48 nM in the test with HT-29; 190 nM with A549. Besides, the Selectivity index in test [1] is listed as 10.
`COc1cc([C@@H]2c3cc4c(cc3C[C@H]3COC(=O)[C@@H]32)OCO4)cc(OC)c1OC` [DESOXYPODOPHYLLOTOXIN]: the IC50 was 10 nM in the test with P388, 6 nM with CV-1, 6 nM in the test with HT-29 and less than 6 nM in the test with A549.
As to `COc1cc([C@@H]2c3cc4c(cc3C(=O)[C@H]3COC(=O)[C@@H]23)OCO4)cc(OC)c1OC` [PICROPODOPHYLLONE], the IC50 is 12000 nM with P388, 48000 nM in the test on CV-1, 12000 nM with HT-29 and 12000 nM with A549.
On to `COc1cc([C@@H]2c3cc4c(cc3[C@H](O)[C@H]3COC(=O)[C@H]23)OCO4)cc(OC)c1OC` [PODOFILOX], for which the half-maximal inhibitory concentration (IC50) in the test on P388 turned out to be 12 nM; in the test with CV-1, 29 nM; in the test with HT-29, 29 nM; with A549, 12 nM.
For the compound `COC(=O)[C@@H]1C(C=O)=Cc2cc3c(cc2[C@H]1c1cc(OC)c(OC)c(OC)c1)OCO3` [PODOPHYLLIC ALDEHYDE], the IC50 with SK-MEL-28 came to 230 nM; with P388 it was 230 nM; in the test with CV-1 it was 230 nM; with HT-29 it was 12 nM; with A549, 120 nM. The Selectivity index in test [1] stood at 20.
